Data: PubChem BioAssay (NCI)
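Test compounds were applied to cells in 96-well plates for 48 hours at 5 doses. The concentration for full growth arrest is given as TGI.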

Tests used:
Test in all cases: NCI tumour cell line growth inhibition, 48 h
[1] = tested on: RPMI-8226 leukemia
[2] = tested on: HOP-62 NSCLC
[3] = tested on: UO-31 renal
[4] = tested on: SK-OV-3 ovarian
[5] = tested on: CAKI-1 renal
[6] = tested on: M14 melanoma
[7] = tested on: A549 NSCLC
[8] = tested on: HCT-116 colon
[9] = tested on: NCI-H23 lung
[10] = tested on: NCI-H460 lung
[11] = tested on: K-562 leukemia
[12] = tested on: SF-268 CNS
[13] = tested on: SF-295 CNS
[14] = tested on: RXF-631 renal
[15] = tested on: LXFL 529 NSCLC
[16] = tested on: TK-10 renal
[17] = tested on: UACC-62 melanoma
[18] = tested on: SK-MEL-5 melanoma
[19] = tested on: OVCAR-4 ovarian
[20] = tested on: COLO 205 colon
[21] = tested on: SN12C renal
[22] = tested on: SNB-19 CNS
[23] = tested on: HOP-18 NSCLC
[24] = tested on: KM20L2 colon
[25] = tested on: U251 CNS
[26] = tested on: SK-MEL-2 melanoma
[27] = tested on: IGROV1 ovarian
[28] = tested on: HCC-2998 colon
[29] = tested on: SNB-75 CNS
[30] = tested on: OVCAR-8 ovarian
[31] = tested on: HOP-92 NSCLC
[32] = tested on: HT29 colon
[33] = tested on: DMS 273 small cell lung
[34] = tested on: KM12 colon
[35] = tested on: OVCAR-5 ovarian
[36] = tested on: MOLT-4 leukemia
[37] = tested on: HL-60(TB) leukemia
[38] = tested on: MALME-3M melanoma
[39] = tested on: M19-MEL melanoma
[40] = tested on: SF-539 CNS
[41] = tested on: CCRF-CEM leukemia
[42] = tested on: DLD-1 colon
[43] = tested on: NCI-H522 lung
[44] = tested on: 786-0 renal
[45] = tested on: SR leukemia
[46] = tested on: SNB-78 CNS
[47] = tested on: ACHN renal
[48] = tested on: UACC-257 melanoma
[49] = tested on: DMS 114 small cell lung
[50] = tested on: LOX IMVI melanoma
[51] = tested on: HCT-15 colon
[52] = tested on: SW-620 colon
[53] = tested on: SK-MEL-28 melanoma
[54] = tested on: A498 renal
[55] = tested on: OVCAR-3 ovarian
[56] = tested on: EKVX NSCLC
[57] = tested on: RXF 393 renal

Compound: CN(c1ccccc1)C(c1ccccc1)C(O)c1ccccc1 (configuration not stated)
- TGI [1]: 49.3 µM
- TGI [2]: 38 µM
- TGI [3]: 41.9 µM
- TGI [4]: 52.1 µM
- TGI [5]: 47.7 µM
- TGI [6]: 30.4 µM
- TGI [7]: 35.4 µM
- TGI [8]: 33.7 µM
- TGI [9]: 40.4 µM
- TGI [10]: 36.2 µM
- TGI [11]: 41.1 µM
- TGI [12]: 42.1 µM
- TGI [13]: 32 µM
- TGI [14]: 43.2 µM
- TGI [15]: 43.4 µM
- TGI [16]: 57.1 µM
- TGI [17]: 38.1 µM
- TGI [18]: 34.7 µM
- TGI [19]: 34.5 µM
- TGI [20]: 30.1 µM
- TGI [21]: 31.3 µM
- TGI [22]: 36.4 µM
- TGI [23]: 33.2 µM
- TGI [24]: 35.7 µM
- TGI [25]: 33.2 µM
- TGI [26]: 31.8 µM
- TGI [27]: 45.4 µM
- TGI [28]: 38.8 µM
- TGI [29]: 64.4 µM
- TGI [30]: 36 µM
- TGI [31]: 47.8 µM
- TGI [32]: 32.9 µM
- TGI [33]: 34 µM
- TGI [34]: 34.4 µM
- TGI [35]: 37.3 µM
- TGI [36]: 42.1 µM
- TGI [37]: 37.7 µM
- TGI [38]: 31.4 µM
- TGI [39]: 42.4 µM
- TGI [40]: 37.7 µM
- TGI [41]: 63.3 µM
- TGI [42]: 47.5 µM
- TGI [43]: 36.9 µM
- TGI [44]: 33.8 µM
- TGI [45]: 49.8 µM
- TGI [46]: 59.6 µM
- TGI [47]: 54.4 µM
- TGI [48]: 35.6 µM
- TGI [49]: 47.5 µM
- TGI [50]: 31.7 µM
- TGI [51]: 40.3 µM
- TGI [52]: 33.2 µM
- TGI [53]: 41.7 µM
- TGI [54]: 37.5 µM
- TGI [55]: 32 µM
- TGI [56]: 62.7 µM

Compound: COC(=O)c1nc(NC#N)[nH]c(=O)c1C
- TGI [1]: > 100 µM
- TGI [2]: > 100 µM
- TGI [3]: > 84.2 µM
- TGI [4]: > 100 µM
- TGI [5]: > 100 µM
- TGI [6]: > 100 µM
- TGI [7]: > 100 µM
- TGI [8]: > 100 µM
- TGI [9]: > 100 µM
- TGI [10]: > 100 µM
- TGI [11]: > 100 µM
- TGI [12]: > 100 µM
- TGI [13]: > 100 µM
- TGI [14]: > 100 µM
- TGI [15]: > 100 µM
- TGI [16]: > 100 µM
- TGI [17]: > 100 µM
- TGI [18]: > 100 µM
- TGI [19]: > 100 µM
- TGI [20]: > 100 µM
- TGI [21]: > 100 µM
- TGI [22]: > 100 µM
- TGI [23]: > 100 µM
- TGI [24]: > 100 µM
- TGI [25]: > 100 µM
- TGI [26]: > 100 µM
- TGI [27]: > 100 µM
- TGI [28]: > 100 µM
- TGI [29]: > 95.4 µM
- TGI [30]: > 100 µM
- TGI [31]: > 100 µM
- TGI [32]: > 100 µM
- TGI [33]: > 100 µM
- TGI [34]: > 100 µM
- TGI [35]: > 100 µM
- TGI [36]: > 100 µM
- TGI [37]: > 100 µM
- TGI [38]: > 100 µM
- TGI [39]: > 100 µM
- TGI [40]: > 93 µM
- TGI [41]: > 100 µM
- TGI [42]: > 100 µM
- TGI [43]: > 100 µM
- TGI [57]: > 100 µM
- TGI [44]: > 100 µM
- TGI [46]: > 100 µM
- TGI [47]: > 100 µM
- TGI [48]: > 100 µM
- TGI [49]: > 100 µM
- TGI [50]: > 100 µM
- TGI [51]: > 100 µM
- TGI [52]: > 100 µM
- TGI [53]: > 100 µM
- TGI [54]: > 100 µM
- TGI [55]: > 100 µM
- TGI [56]: > 100 µM
